Test results taken from patent US20260356957A1, “METHODS FOR TREATMENT OF NON-SMALL CELL LUNG CANCER (NSCLC)” (Janssen Biotech, Inc., priority 2023, published 2026).

What was measured:
EGFR-mutated NSCLC = details: all prespecified subgroups; cited from earlier work
[1] = system: EGFR-mutated locally advanced or metastatic NSCLC; assay: MARIPOSA Phase 3, objective response by BICR (RECIST v1.1); assay type: in vivo, human; details: best overall response
[2] = system: EGFR-mutated locally advanced or metastatic NSCLC; assay: MARIPOSA Phase 3, progression-free survival by BICR; assay type: in vivo, human
Description: The primary endpoint of the study is PFS (using RECIST v1.1 guidelines) as assessed by blinded independent central review (BICR).

[3] = system: EGFR-mutated locally advanced or metastatic NSCLC; assay: MARIPOSA Phase 3, time to symptomatic progression (TTSP); assay type: in vivo, human
[4] = system: EGFR-mutated NSCLC with brain metastasis; assay: MARIPOSA Phase 3, intracranial PFS by BICR in participants with history of brain metastasis; assay type: in vivo, human
Description: • 1. […] Intracranial PFS [Time Frame: Up to approximately 42 months]. […] Incidence and Severity of Adverse Events (AEs) [Time Frame: Up to approximately 60 months]. Incidence and severity of treatment emergent adverse events (TEAEs) will be reported. Any adverse event occurring at or after the initial administration of study treatment through the day of last dose plus 30 days, or until the start of subsequent anticancer therapy (if earlier), is considered to be treatment emergent. • 8. Number of Participants with Clinical Laboratory Abnormalities [Time Frame: Up to approximately 60 months]. Number of participants with clinical laboratory abnormalities (serum chemistry, hematology, blood coagulation, and urine samples) will be reported. • 9. Number of Participants with Vital Signs Abnormalities [Time Frame: Up to approximately 60 months]. Number of participants with vital signs abnormalities (temperature, heart rate, respiratory rate, oxygen saturation, blood pressure) will be reported. • 10. Number of Participants with Physical Examination Abnormalities [Time Frame: Up to approximately 60 months]. Number of participants with physical examination abnormalities will be reported. • 11. […] Number of Participants with Anti-Amivantamab Antibodies [Time Frame: Up to approximately 42 months]. […] Change from Baseline in Non-Small Cell Lung Cancer-Symptom Assessment Questionnaire (NCSLC-SAQ) [Time Frame: Baseline Up to approximately 42 months]. The NSCLC-SAQ contains 7 items that assess cough, pain, dyspnea, fatigue, and poor appetite over a 7-day recall period. Each multi-item scale and individual item will be summarized using count and percent by visit. • 15. Change from Baseline in European Organization of Research and Treatment of Cancer Quality of Life Questionnaire Core 30 (EORTC-QLQ-C30) [Time Frame: Baseline Up to approximately 42 months]. EORTC-QLQ-C30 is a core 30-item questionnaire for evaluating the health-related quality of life (HRQOL) of participants participating in cancer clinical studies. • 16.

[5] = system: EGFR-mutated locally advanced or metastatic NSCLC; assay: MARIPOSA Phase 3, progression-free survival after first subsequent therapy (PFS2); assay type: in vivo, human
Description: The efficacy population included all patients who had undergone randomization. Tick marks indicate censoring of data. […]

[6] = MARIPOSA Phase 3, adverse events; assay type: in vivo, human; details: in vivo
Description: • 1. […] Incidence and Severity of Adverse Events (AEs) [Time Frame: Up to approximately 60 months]. Incidence and severity of treatment emergent adverse events (TEAEs) will be reported. Any adverse event occurring at or after the initial administration of study treatment through the day of last dose plus 30 days, or until the start of subsequent anticancer therapy (if earlier), is considered to be treatment emergent. • 8. Number of Participants with Clinical Laboratory Abnormalities [Time Frame: Up to approximately 60 months]. Number of participants with clinical laboratory abnormalities (serum chemistry, hematology, blood coagulation, and urine samples) will be reported. • 9. Number of Participants with Vital Signs Abnormalities [Time Frame: Up to approximately 60 months]. Number of participants with vital signs abnormalities (temperature, heart rate, respiratory rate, oxygen saturation, blood pressure) will be reported. • 10. Number of Participants with Physical Examination Abnormalities [Time Frame: Up to approximately 60 months]. Number of participants with physical examination abnormalities will be reported. • 11. […] The NSCLC-SAQ contains 7 items that assess cough, pain, dyspnea, fatigue, and poor appetite over a 7-day recall period. Each multi-item scale and individual item will be summarized using count and percent by visit. • 15. […] EORTC-QLQ-C30 is a core 30-item questionnaire for evaluating the health-related quality of life (HRQOL) of participants participating in cancer clinical studies. • 16.

[7] = system: EGFR-mutated locally advanced or metastatic NSCLC; assay: MARIPOSA Phase 3, overall survival; assay type: in vivo, human
[8] = system: EGFR-mutated locally advanced or metastatic NSCLC; assay: MARIPOSA Phase 3, time to subsequent therapy (TTST) and subsequent therapy; assay type: in vivo, human
[9] = system: EGFR-mutated locally advanced or metastatic NSCLC; assay: MARIPOSA Phase 3, duration of response by BICR; assay type: in vivo, human; details: confirmed responders

Q: Which “PFS vs gefitinib” value (EGFR-mutated NSCLC) does the source give for `C=CC(=O)Nc1cc(Nc2nccc(-n3cc(CN(C)C)c(-c4ccccc4)n3)n2)c(OC)cc1N1CCOCC1` [Lazertinib, N-(5-(4-(4-((dimethylamino)methyl)-3-phenyl-1H-pyrazol-1-yl)pyrimidin-2-ylamino)-4-methoxy-2-morpholinophenyl) acrylamide] here?
A: Its value is “improved PFS compared to the first generation EGFR TKI gefitinib in all prespecified subgroups”.

Q: And the “Complete Response (CR)” value [1]?
A: The value was 9 (4.2%) (%).

Q: And the “Not Evaluable (NE)” value [1]?
A: The value was 5 (2.3%) (%).

Q: What about the “Progressive Disease (PD)” value [1] of the same compound?
A: The value was 9 (4.2%) (%).

Q: And the “PFS 6-month event-free rate (95% CI)” value [2]?
A: Its value is 0.85 (0.79, 0.89).

Q: What about the “PFS 18-month event-free rate (95% CI)” value [2] of the same compound?
A: Its value is 0.52 (0.44, 0.58).

Q: And the “PFS 24-month event-free rate (95% CI)” value [2]?
A: The value was 0.35 (0.27, 0.42).

Q: And the “PFS 30-month event-free rate (95% CI)” value [2]?
A: Its value is 0.30 (0.22, 0.39).

Q: What about the “Censored (PFS)” value ([2]; Full Analysis Set) of the same compound?
A: Its value is 95 (44.0%) (%).

Q: And the “PFS time to event, 75th percentile (95% CI)” value ([2]; Full Analysis Set)?
A: The value was “NE (24.05, NE)”.

Q: And the “Death without Symptomatic PD” value ([3]; Full Analysis Set)?
A: The value was 24 (11.1%) (%).

Q: What about the “Event (TTSP)” value ([3]; Full Analysis Set) of the same compound?
A: The value was 70 (22.4%) (%).

Q: What about the “TTSP 6-month event-free rate (95% CI)” value ([3]; Full Analysis Set) of the same compound?
A: The value was 0.90 (0.85, 0.93).

Q: And the “TTSP 12-month event-free rate (95% CI)” value ([3]; Full Analysis Set)?
A: The value was 0.79 (0.72, 0.84).

Q: And the “TTSP 18-month event-free rate (95% CI)” value ([3]; Full Analysis Set)?
A: Its value is 0.71 (0.64, 0.76).

Q: And the “TTSP 24-month event-free rate (95% CI)” value ([3]; Full Analysis Set)?
A: The value was 0.65 (0.58, 0.72).

Q: And the “TTSP 30-month event-free rate (95% CI)” value ([3]; Full Analysis Set)?
A: Its value is 0.61 (0.52, 0.69).

Q: What about the “TTSP time to event, 25th percentile (95% CI)” value ([3]; Full Analysis Set) of the same compound?
A: Its value is 13.80 (10.41, 18.56) months.

Q: What about the “TTSP Median (95% CI)” value ([3]; NE = not estimable) of the same compound?
A: Its value is “NE (NE, NE)”.

Q: What about the “TTSP time to event, 75th percentile (95% CI)” value ([3]; NE = not estimable) of the same compound?
A: The value was “NE (NE, NE)”.

Q: What about the “Event (intracranial PFS)” value [4] of the same compound?
A: The value was 37 (43.0%) (%).

Q: What about the “Intracranial PFS time to event, 75th percentile (95% CI)” value ([4]; NE = not estimable) of the same compound?
A: The value was “NE (22.67, NE)”.

Q: What about the “Event (PFS2)” value ([5]; Full Analysis Set) of the same compound?
A: The value was 58 (26.9%) (%).

Q: What about the “PFS2 time to event, 75th percentile (95% CI)” value ([5]; NE = not estimable) of the same compound?
A: The value was “NE (28.94, NE)”.

Q: And the “Safety profile” value [6]?
A: Its value is “well defined and tolerable, and largely consistent with that seen with other 3rd generation EGFR TKI”.

Q: And the “Censored (OS)” value ([7]; Full Analysis Set)?
A: The value was 160 (74.1%) (%).

Q: What about the “Event (OS)” value ([7]; Full Analysis Set) of the same compound?
A: The value was 56 (25.9%) (%).

Q: What about the “OS 12-month event-free rate (95% CI)” value ([7]; Full Analysis Set) of the same compound?
A: The value was 0.86 (0.81, 0.90).

Q: And the “OS 18-month event-free rate (95% CI)” value ([7]; Full Analysis Set)?
A: The value was 0.78 (0.71, 0.83).

Q: What about the “OS 24-month event-free rate (95% CI)” value ([7]; Full Analysis Set) of the same compound?
A: Its value is 0.71 (0.61, 0.78).

Q: And the “OS 30-month event-free rate (95% CI)” value ([7]; Full Analysis Set)?
A: The value was 0.68 (0.58, 0.75).

Q: What about the “OS time to event, 75th percentile (95% CI)” value ([7]; NE = not estimable) of the same compound?
A: The value was “NE (NE, NE)”.

Q: What about the “Median overall survival (95% CI)” value ([7]; interim analysis, NE = not estimable) of the same compound?
A: Its value is “NE (NE, NE)”.

Q: What about the “TTST 6-month event-free rate (95% CI)” value ([8]; Full Analysis Set) of the same compound?
A: Its value is 0.90 (0.85, 0.93).

Q: What about the “TTST 12-month event-free rate (95% CI)” value ([8]; Full Analysis Set) of the same compound?
A: Its value is 0.71 (0.66, 0.78).

Q: What about the “TTST 18-month event-free rate (95% CI)” value ([8]; Full Analysis Set) of the same compound?
A: Its value is 0.60 (0.53, 0.66).

Q: What about the “TTST 24-month event-free rate (95% CI)” value ([8]; Full Analysis Set) of the same compound?
A: Its value is 0.50 (0.43, 0.58).

Q: And the “TTST time to event, 75th percentile (95% CI)” value ([8]; NE = not estimable)?
A: The value was “NE (NE , NE)”.

Q: What about the “Censored (DOR)” value [9] of the same compound?
A: Its value is 77 (48.1%) (%).

Q: And the “Event (DOR)” value [9]?
A: The value was 83 (51.9%) (%).

Q: What about the “DOR time to event, 75th percentile (95% CI)” value ([9]; NE = not estimable) of the same compound?
A: Its value is “NE (NE, NE)”.

Q: Which “Safety profile” value [6] does the source give for “Amivantamab: IgG1 anti-EGFR/c-Met bispecific antibody described in U.S. Pat. No. 9,593,164; SEQ ID NO: 1-20” here?
A: Its value is “well defined and tolerable, largely consistent with its on-target activity against the EGFR and MET pathways”.
